The text below walks through data of patent publication US7674813B2, “Heterocyclic sulfonamide inhibitors of beta amyloid production containing an azole” (Wyeth, priority 2004, dated 2010).

For series [1], the system named is beta amyloid 42. The series can be described thus: Aβ40/42 ELISA Assay (Aβ42). It counts as cell-based. The conditions noted are these: CHO cells carrying the APP-REP-NL plasmid, 22 hours, sandwich ELISA. In outline:
(§1)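 Test compounds at 2 μM and below are applied for 22 h to CHO cells stably carrying APP-REP-NL. Secreted Aβ40 or Aβ42 in conditioned medium is measured by sandwich ELISA against synthetic peptide standards, using 6E10 capture with C-terminus-specific anti-Aβ40 or anti-Aβ42 detection. Toxicity is checked by MTS read-out; EC50 reported.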

For series [2], the system named is beta amyloid 40. In words: Aβ40/42 ELISA Assay (Aβ40). Format: cell-based. The conditions noted are these: Cricetulus griseus; CHO cells carrying the APP-REP-NL plasmid, 22 hours, sandwich ELISA. In outline: as §1
Background: An ELISA detects its analyte on a solid surface through an enzyme-linked reagent.

As a reminder, the EC50 is the concentration at which the effect is half-maximal. The low end stands for a more potent agent, the high end for a less potent agent. As usually defined, the melting point is the temperature, or range, at which the solid turns liquid. Consider `CCC(CC)C(c1ccnn1-c1ccccc1)N(C)S(=O)(=O)c1cc(Cl)c(Cl)s1` (stereo not drawn) [Example 45, 4,5-Dichloro-N-[2-ethyl-1-(1-phenyl-1H-pyrazol-5-yl)butyl]-N-methylthiophene-2-sulfonamide], for which the melting point was in the range of 99 to 100.4 °C. The “Effect on Aβ42 production” value in series [1] was “increase”. A half-maximal response in series [2] (EC50) required 33.6 µM.
For `CCC(CC)C(c1ccnn1-c1ccccc1)N(C)S(=O)(=O)c1ccc(Cl)s1` (stereo not drawn) [Example 46, 5-Chloro-N-[2-ethyl-1-(1-phenyl-1H-pyrazol-5-yl)butyl]-N-methylthiophene-2-sulfonamide], in that order: 125.8 to 127.6 °C, “increase” and 70.1 µM.
Consider `CCC(CC)C(c1ccnn1-c1ccccc1)N(C)S(=O)(=O)c1ccc(Cl)c(Cl)c1` (stereo not drawn) [Example 47, 3,4-Dichloro-N-[2-ethyl-1-(1-phenyl-1H-pyrazol-5-yl)butyl]-N-methylbenzenesulfonamide], for which the melting point lay within 102.1 to 104.1 °C. In series [1], the “Effect on Aβ42 production” value is “increase”. The compound also returned an EC50 in series [2] of 61.2 µM.
For `CCC(CC)C(c1ccnn1-c1ccccc1)N(C)S(=O)(=O)c1ccc(Br)s1` (stereo not drawn) [Example 48, 5-Bromo-N-[2-ethyl-1-(1-phenyl-1H-pyrazol-5-yl)butyl]-N-methylthiophene-2-sulfonamide], in that order: 115.6 to 118 °C, “increase” and 65.1 µM.
